Experimental data taken from PubChem BioAssay (NCI).
Where “and” joins values, the source holds several entries; their conditions need not be identical. Identical values can stand only once.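 A five-concentration, 48-hour dose response in 96-well plates underlies each endpoint, interpolated linearly between surrounding concentrations. GI50 is the concentration that inhibits growth by half. TGI is the concentration that stops growth completely.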

How the values were obtained:
Experiment in all cases: NCI anticancer screen, dose series, 48 h
MDA-MB-231 breast = tested on: MDA-MB-231 breast
RXF 393 renal = tested on: RXF 393 renal
SF-268 CNS = tested on: SF-268 CNS
CAKI-1 renal = tested on: CAKI-1 renal
HOP-62 NSCLC = tested on: HOP-62 NSCLC
PC-3 prostate = tested on: PC-3 prostate
SNB-19 CNS = tested on: SNB-19 CNS
SK-MEL-5 melanoma = tested on: SK-MEL-5 melanoma
SK-OV-3 ovarian = tested on: SK-OV-3 ovarian
MCF7 breast = tested on: MCF7 breast

SMILES	TGI (MDA-MB-231 breast) [µM]	TGI (RXF 393 renal) [µM]	TGI (SF-268 CNS) [µM]	TGI (CAKI-1 renal) [µM]	TGI (HOP-62 NSCLC)	TGI (PC-3 prostate) [µM]	TGI (SNB-19 CNS) [µM]	TGI (SK-MEL-5 melanoma)	TGI (SK-OV-3 ovarian) [µM]	TGI (MCF7 breast) [µM]	GI50 (RXF 393 renal) [µM]	GI50 (SF-268 CNS) [µM]	GI50 (CAKI-1 renal) [µM]	GI50 (HOP-62 NSCLC) [µM]	GI50 (PC-3 prostate) [µM]	GI50 (SNB-19 CNS) [µM]	GI50 (SK-MEL-5 melanoma) [µM]	GI50 (MCF7 breast) [µM]
COc1cccc(OC)c1NC(=O)C(=O)Nn1c(NNC(=O)c2ccncc2)nc2ccccc2c1=O	> 100	> 100	> 100	> 100	> 100 µM	> 100	> 100	> 100 µM	> 100	> 100	–	–	–	–	–	–	–	–
N#CC1=C(N)N(/N=C/c2ccco2)C(c2ccco2)C1(C#N)C#N (stereo not drawn)	38.6	25.8	79.7	37.9	51.1 µM	48.5	39.2	29.3 µM	83.8	43.2	–	–	–	–	–	–	–	–
CN(C)CC1CCC/C(=C\c2ccc(OC(=O)/C=C/c3ccc(Cl)cc3)cc2)C1=O (stereo not drawn)	21	4.08	12.4	5.12	14.8 µM	11.7	13.9	9.46 µM	50	4.95	–	–	–	–	–	–	–	–
CC(=O)NC(C)(C)C1CCC(C)CC1 (stereo not drawn)	> 100	> 100	> 100	> 100	> 100 µM	> 100	> 100	> 100 µM	> 100	> 100	–	–	–	–	–	–	–	–
CC[C@]12C=CCN3CC[C@@]4(c5cc(Br)c(OC)cc5N(C)[C@H]4[C@@](O)(C(=O)NC(Cc4c[nH]c5ccccc45)C(=O)OC)[C@@H]1O)[C@@H]32 (stereo partly drawn)	> 100	98.6	> 100	> 100	> 100 µM	> 100	> 100	75.8 µM	> 100	> 100	–	–	–	–	–	–	–	–
O=C1CC(c2ccccc2)n2c(nc3ccccc32)N1 (stereo not drawn)	> 100	> 100	> 100	> 100	> 100 µM	> 100	> 100	42.8 µM	> 100	> 100	–	–	–	–	–	–	–	–
CC1CN(CCO)CCN1c1ccccc1 (stereo not drawn)	> 100	> 100	> 100	> 100	> 100 µM	> 100	> 100	> 100 µM	> 100	> 100	–	–	–	–	–	–	–	–
CCN(CC)CCC1CCCCN1CC(=O)N1c2cc(Cl)ccc2NC(=O)CC1C (stereo not drawn)	> 100	> 100	> 100	> 100	> 100 µM	> 100	> 100	> 100 µM	> 100	> 100	–	–	–	–	–	–	–	–
O=c1[nH]cnc2c1cnn2Cc1cnnn1COCCO	> 100	> 100	> 100	> 100	> 100 µM	> 100	> 100	> 100 µM	> 100	> 100	–	–	–	–	–	–	–	–
CCSc1nc(N/N=C/c2cccs2)c2cnn(CO)c2n1	54.8	13.9	23.7	13.7	14.9 µM	21.4	27.1	12.9 µM	29.4	14.4	–	–	–	–	–	–	–	–
O=C(O)c1nn(-c2ccccc2)nc1-c1nn(-c2ccccc2)nc1C(=O)O	> 100	> 100	> 100	> 100	> 100 µM	> 100	> 100	> 100 µM	> 100	> 100	–	–	–	–	–	–	–	–
COC(=O)C12Oc3ccc(-c4ccc5c(c4O)C(O)=C4C(=O)CC(C)C(O)C4(C(=O)OC)O5)c(O)c3C(O)=C1C(=O)CC(C)C2O (stereo not drawn)	6.8	0.935	1.84	4.54	12.6 µM	1.43	> 100	0.147 µM	> 82.1	> 100	–	–	–	–	–	–	–	–
COc1cc(/C=C/C(=N\NC(N)=S)c2sc(NNC(C)=O)nc2C)ccc1O	> 100	> 100	> 100	> 100	> 100 µM	> 100	> 100	> 100 µM	> 100	> 100	–	–	–	–	–	–	–	–
C(=C/c1nnnn1-c1ccccc1)/Nc1ccccc1	> 100	> 100	> 100	> 100	81.6 µM	> 100	96.8	27.7 µM	> 100	64.8	–	–	–	–	–	–	–	–
C=C1CCOC2(C(O)C(C)(O)CO)NC(=O)C1(O)NC2=O (stereo not drawn)	> 100	> 100	> 100	> 100	> 100 µM	> 100	> 100	> 100 µM	> 100	> 100	–	–	–	–	–	–	–	–
Cc1cc(C)c2c(n1)S(=O)(=O)N(CCCN1CCN(c3cccc(Cl)c3)CC1)/C(=C(\O)c1ccc(Br)cc1)C2=O	> 100	83.7	> 100	49.4	> 100 µM	> 100	98.4	39.7 µM	> 100	> 100	–	–	–	–	–	–	–	–
C/C(=N\NC(N)=S)c1nc2ncccc2[nH]1	> 100	> 100	> 100	> 100	> 100 µM	> 100	> 100	> 100 µM	> 100	> 100	–	–	–	–	–	–	–	–

SMILES	TGI (MDA-MB-231 breast) [µM]	TGI (RXF 393 renal) [µM]	TGI (SF-268 CNS) [µM]	TGI (CAKI-1 renal) [µM]	TGI (HOP-62 NSCLC)	TGI (PC-3 prostate) [µM]	TGI (SNB-19 CNS) [µM]	TGI (SK-MEL-5 melanoma)	TGI (SK-OV-3 ovarian) [µM]	TGI (MCF7 breast) [µM]	GI50 (RXF 393 renal) [µM]	GI50 (SF-268 CNS) [µM]	GI50 (CAKI-1 renal) [µM]	GI50 (HOP-62 NSCLC) [µM]	GI50 (PC-3 prostate) [µM]	GI50 (SNB-19 CNS) [µM]	GI50 (SK-MEL-5 melanoma) [µM]	GI50 (MCF7 breast) [µM]
COc1ccc(Nc2nc(N)c(C(=O)c3ccc(Cl)cc3)s2)cc1	6.13	0.0323	> 67.5	13.4	17 µM	6.61	31.2	2.19 µM	20.4	> 32.9	–	–	–	–	–	–	–	–
CCCCCCCCCCCCOC1C(COCCN2CCCCC2)OC2OC(C)(C)OC21 (stereo not drawn)	3.43	3.4	6.44	3.28	3.25 µM	3.8	8.07	2.93 µM	15.9	3.23	–	–	–	–	–	–	–	–
COc1cc2c[n+](C)c3c4cc(OC)c(OCc5ccccc5)cc4c(OCc4ccccc4)cc3c2cc1OC	18.4	41.1	17.4	> 77.3	39.3 µM	11.1	15.2	6.77 µM	> 52.8	21.9	–	–	–	–	–	–	–	–
COC(=O)c1ccccc1C1CN=NC12Cc1ccc3c(c1C2=O)CCC3 (stereo not drawn)	> 100	> 100	> 100	> 100	> 100 µM	> 100	> 100	> 100 µM	> 100	> 100	–	–	–	–	–	–	–	–
COc1ccc2c(c1)/c(=C/C#N)c1c3ccccc3[n+](C)n21	64.4	50.1	30.5	47.3	29.6 µM	11.7	51.5	> 44.8 µM	> 100	> 55.9	–	–	–	–	–	–	–	–
COc1ccc(-c2oc3cc(O)c(OC)c(O)c3c(=O)c2O)cc1	> 100	50.2	> 77.1	65.3	25.7 µM	> 100	> 100	34 µM	42.8	63.7	–	–	–	–	–	–	–	–
COc1ccc([I+]c2ccc(OC)cc2)cc1	> 100	> 100	> 100	> 100	> 73.2 µM and 92 µM	> 100	> 100	20.7 µM and 6.76 µM	> 100	> 100	27.3	12.6	> 85.3	3.34	15.7	20.9	1.8	7.26
CN1C(=O)C23CCCC2CC1(c1ccccc1)S3 (stereo not drawn)	> 100	> 100	> 100	> 100	> 100 µM	> 100	> 100	> 100 µM	> 100	> 100	–	–	–	–	–	–	–	–
CCC(Nc1ncnc2nc[nH]c12)C(=O)O (stereo not drawn)	> 100	> 100	> 100	> 100	> 100 µM	> 100	> 100	> 100 µM	> 100	> 100	–	–	–	–	–	–	–	–
COc1ccc2[nH]c3c(c2c1)CC(=O)N1CCC[C@H](C1)CC31OCCCO1	> 100	> 100	> 100	> 100	> 100 µM	> 100	> 100	> 100 µM	> 100	> 100	–	–	–	–	–	–	–	–
O=C1c2cccnc2-c2nccc3c2c1nc1ccccc13	0.674	0.459	0.834	0.467	0.514 µM	1.58	1.28	0.168 µM	1.19	0.0858	–	–	–	–	–	–	–	–
CCOC(=O)c1nc2cc(Cl)ccc2[nH]c1=O	> 100	> 100	> 100	> 100	> 100 µM	> 100	> 100	> 100 µM	> 100	> 100	–	–	–	–	–	–	–	–
COC(=O)c1c(O)ccc2c1c1c(n2Cc2cccc(C)c2)C(=O)c2ccccc2C1	> 75	30	> 75	46.3	51.6 µM	27.6	> 75	> 75 µM	> 75	> 75	–	–	–	–	–	–	–	–
Cc1[nH]c2nccn2c(=O)c1CCO	> 10	> 10	> 10	> 10	> 10 µM	> 10	> 10	> 10 µM	> 10	> 10	–	–	–	–	–	–	–	–
CSc1ccc2c(c1)c(CCN)c(C)n2Cc1ccccc1Cl	3.66	2.83	3.4	4.1	2.62 µM	2.86	3.32	3.11 µM	4.28	3.11	–	–	–	–	–	–	–	–
CCOC(=O)NN(C(=O)OCC)C(C(=O)c1ccccc1)N(NC(=O)OCC)C(=O)OCC	> 100	> 100	> 100	> 100	> 100 µM	> 100	> 100	> 100 µM	> 100	> 100	–	–	–	–	–	–	–	–
CN(C)S(=O)(=O)c1nc(Cl)c2[nH]cnc2n1	> 100	> 100	> 100	> 100	> 100 µM	> 100	> 100	> 100 µM	> 100	> 100	–	–	–	–	–	–	–	–
